Measurements taken from ChEMBL document CHEMBL1140386, “Pharmacophore-based design of HIV-1 integrase strand-transfer inhibitors” (J Med Chem, 2005).

Experiments:
[1] = target: T1, Human immunodeficiency virus type 1 integrase (Human immunodeficiency virus 1, UniProt Q7ZJM1)
Description: Strand transfer inhibitory activity against HIV-1 integrase

MT4 [2] = assay: Cytotoxic concentration required to reduce MT-4 cell viability; format: functional; settings: Homo sapiens
[3] = target: T1, Human immunodeficiency virus type 1 integrase; assay: In vitro concentration required to inhibit the overall HIV-1 integrase strand transfer
MT4 [4] = assay: Selectivity index was measured by the ratio of CC50/EC50; format: functional
[5] = target: T1, Human immunodeficiency virus type 1 integrase; assay: In vitro concentration required to inhibit the HIV-1 integrase strand transfer
[6] = system: Human immunodeficiency virus 1; assay: Effective concentration required to reduce HIV-1-induced cytopathic effect in MT-4 cells; format: functional, organism-based; settings: Human immunodeficiency virus 1, MT4
[7] = target: T1, Human immunodeficiency virus type 1 integrase; assay: In vitro concentration required to inhibit the HIV-1 integrase 3'-processing

T1 sequence (Q7ZJM1 whole entry): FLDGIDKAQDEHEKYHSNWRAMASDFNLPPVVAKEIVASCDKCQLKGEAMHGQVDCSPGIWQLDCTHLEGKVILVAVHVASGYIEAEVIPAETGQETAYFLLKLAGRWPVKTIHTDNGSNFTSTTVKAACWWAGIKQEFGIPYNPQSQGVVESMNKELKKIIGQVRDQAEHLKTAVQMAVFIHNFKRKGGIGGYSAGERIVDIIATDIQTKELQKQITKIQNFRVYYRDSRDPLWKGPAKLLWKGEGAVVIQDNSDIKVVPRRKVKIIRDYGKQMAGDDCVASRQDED

O=C(O)C(=O)/C=C(\O)c1ccc(Oc2ccccc2)cc1
IC50 [1]: 11.4 µM

O=C(O)C(=O)/C=C(\O)c1cn(Cc2ccccc2)c2ccccc12
CC50 (MT4 [2]): > 78 µM
IC50 [3]: 0.02 µM
Selectivity index (MT4 [4]): > 4
IC50 [5]: 0.03 µM
EC50 [6]: 19.9 µM
IC50 [7]: 8.28 µM

CCCCOC(=O)C(=O)/C=C(\O)c1cccn1Cc1ccc(F)cc1
IC50 [1]: 100 µM

O=C(O)C(=O)/C=C(\O)c1cccc(Cc2ccccc2)c1
IC50 [1]: 0.01 µM

CCOC(=O)C(=O)/C=C(\O)c1cn(Cc2ccccc2)c2ccc(OC)cc12
CC50 (MT4 [2]): 29 µM
IC50 [3]: 0.15 µM
Selectivity index (MT4 [4]): 5
IC50 [5]: 0.68 µM
EC50 [6]: 6.07 µM
IC50 [7]: 162 µM

O=C(O)C(=O)/C=C(\O)c1cn(Cc2ccccc2)c2ccc(Cl)cc12
CC50 (MT4 [2]): 37.2 µM
IC50 [3]: 0.01 µM
Selectivity index (MT4 [4]): 8
IC50 [5]: 0.1 µM
EC50 [6]: 4.78 µM
IC50 [7]: 0.97 µM

COc1ccc(Cc2ccccc2)cc1/C(O)=C/C(=O)C(=O)O
IC50 [1]: 0.1 µM

COc1ccc2c(c1)c(/C(O)=C/C(=O)C(=O)O)cn2Cc1ccc(F)cc1
CC50 (MT4 [2]): 63.5 µM
IC50 [3]: 0.019 µM
Selectivity index (MT4 [4]): 11
IC50 [5]: 0.004 µM
EC50 [6]: 5.81 µM
IC50 [7]: 2.71 µM

O=C(O)C(=O)/C=C(\O)c1ccc(Cc2ccccc2)s1
IC50 [1]: 0.5 µM

COc1ccc2c(c1)c(/C(O)=C/C(=O)C(=O)O)cn2Cc1ccccc1
CC50 (MT4 [2]): 86.4 µM
IC50 [3]: 0.017 µM
Selectivity index (MT4 [4]): 16
IC50 [5]: 0.021 µM
EC50 [6]: 5.32 µM
IC50 [7]: 2.16 µM

CCOC(=O)C(=O)/C=C(\O)c1cn(Cc2ccccc2)c2ccc(Cl)cc12
CC50 (MT4 [2]): 34 µM
IC50 [3]: 0.22 µM
Selectivity index (MT4 [4]): 8
IC50 [5]: 0.03 µM
EC50 [6]: 4.5 µM
IC50 [7]: 10.2 µM

CCOC(=O)C(=O)/C=C(\O)c1cn(Cc2ccc(F)cc2)c2ccccc12
CC50 (MT4 [2]): 27.2 µM
IC50 [3]: 1.2 µM
Selectivity index (MT4 [4]): 3
IC50 [5]: 1.5 µM
EC50 [6]: 9.25 µM
IC50 [7]: > 272 µM

COc1ccc(/C(O)=C/C(=O)C(=O)O)cc1Cc1ccccc1
IC50 [1]: 0.15 µM

O=C(O)C(=O)/C=C(\O)c1ccsc1Cc1ccccc1
IC50 [1]: 0.18 µM

O=C(O)C(=O)/C=C(\O)c1cccc(Cc2cccc(F)c2)c1
IC50 [1]: 0.25 µM

O=C(O)C(=O)/C=C(\O)c1cn(Cc2ccc(F)cc2)c2ccccc12
CC50 (MT4 [2]): > 74 µM
IC50 [3]: 0.002 µM
Selectivity index (MT4 [4]): > 14
IC50 [5]: 0.015 µM
EC50 [6]: 5.31 µM
IC50 [7]: 5.3 µM

O=C(O)C(=O)/C=C(\O)c1cccc(Br)c1
IC50 [1]: 2.5 µM

O=C(O)C(=O)/C=C(\O)c1cc(OCc2ccccc2)cc(OCc2ccccc2)c1
IC50 [1]: 0.1 µM

CCOC(=O)C(=O)/C=C(\O)c1cn(Cc2ccccc2)c2ccccc12
CC50 (MT4 [2]): 120 µM
IC50 [3]: 0.76 µM
Selectivity index (MT4 [4]): 8
IC50 [5]: 5.4 µM
EC50 [6]: 14.3 µM
IC50 [7]: > 286 µM

O=C(O)C(=O)/C=C(\O)c1cn(Cc2ccc(F)cc2)c2ccc(Cl)cc12
CC50 (MT4 [2]): 53.4 µM
IC50 [3]: 0.2 µM
Selectivity index (MT4 [4]): 19
IC50 [5]: 0.01 µM
EC50 [6]: 2.78 µM
IC50 [7]: 1.59 µM

CCOC(=O)C(=O)/C=C(\O)c1cn(Cc2ccc(F)cc2)c2ccc(Cl)cc12
CC50 (MT4 [2]): 26.5 µM
IC50 [3]: 0.39 µM
Selectivity index (MT4 [4]): 8
IC50 [5]: 0.07 µM
EC50 [6]: 3.42 µM
IC50 [7]: 11.5 µM

COc1cc(Cc2ccccc2)cc(/C(O)=C/C(=O)C(=O)O)c1
IC50 [1]: 0.14 µM

CC(C)OC(=O)C(=O)/C=C(\O)c1cccn1Cc1ccc(F)cc1
IC50 [1]: 100 µM

CCC(=O)C(=O)/C=C(\O)c1c[nH]c2ccc(Cl)cc12
IC50 [1]: 6.9 µM

O=C(O)C(=O)/C=C(\O)c1cccn1Cc1ccccc1
IC50 [1]: 0.22 µM

CCOC(=O)C(=O)/C=C(\O)c1cn(Cc2ccc(F)cc2)c2ccc(OC)cc12
CC50 (MT4 [2]): 127 µM
IC50 [3]: 0.22 µM
Selectivity index (MT4 [4]): 9
IC50 [5]: 0.8 µM
EC50 [6]: 14.3 µM
IC50 [7]: 131 µM

NC(=O)C(=O)Nc1nc(C(=O)NCc2ccc(F)cc2)c(O)c2ncccc12
IC50 [1]: 0.04 µM

O=C(NCc1ccc(F)cc1)c1nc(N2CCCCS2(=O)=O)c2cccnc2c1O
CC50 (MT4 [2]): 2.15 µM
IC50 [3]: 0.0005 µM
Selectivity index (MT4 [4]): 457
IC50 [5]: 0.0025 µM
EC50 [6]: 0.0047 µM
IC50 [7]: 0.12 µM

O=C(O)C(=O)/C=C(\O)c1ccnc2ccccc12
IC50 [1]: 100 µM

O=C(/C=C(\O)c1c[nH]c2ccc(Cl)cc12)c1nc[nH]n1
IC50 [1]: 2 µM
